Experiment: xn = mol fraction of the nth substance listed
Details: 303.15 K, 101 kPa, Liquid; for viscosity: Capillary tube (Ostwald / Ubbelohde) method; for excess molar volume: Direct dilatometry; for mass density: Pycnometric method

Clc1cccc(Cl)c1 [1,3-dichlorobenzene] + C[S+](C)[O-]
Details	excess molar volume [m3/mol]	mass density [kg/m3]	speed of sound [m/s]	viscosity [mPa·s]
x2 = 0	–	1277.12	1242	1.025
x2 = 0.0801	1.6e-08	–	1244	1.107
x2 = 0.1124	2.2e-08	–	1248	1.14
x2 = 0.1506	2.7e-08	–	1253	1.181
x2 = 0.2075	3.5e-08	–	1256	1.232
x2 = 0.2511	4e-08	–	1268	1.273
x2 = 0.3162	4.5e-08	–	1387	1.329
x2 = 0.4219	5.3e-08	–	1395	1.419
x2 = 0.4507	5.5e-08	–	1305	1.445
x2 = 0.5005	5.6e-08	–	1345	1.487
x2 = 0.6224	5.4e-08	–	1370	1.586
x2 = 0.6819	5e-08	–	1399	1.632
x2 = 0.7517	4.3e-08	–	1416	1.68
x2 = 0.8015	3.5e-08	–	1431	1.715
x2 = 0.852	2.7e-08	–	1455	1.742
x2 = 0.9221	1.7e-08	–	1467	1.778

C[S+](C)[O-] [dimethyl sulfoxide] + Cc1ccccc1Cl
x1 = 1
Details	mass density [kg/m3]	speed of sound [m/s]
–	1091.35	1470

Clc1ccc(Cl)c(Cl)c1 [1,2,4-trichlorobenzene] + C[S+](C)[O-]
Details	excess molar volume [m3/mol]	mass density [kg/m3]	speed of sound [m/s]	viscosity [mPa·s]
x2 = 0	–	1442.14	1260	1.613
x2 = 0.0911	1.2e-08	–	1253	1.647
x2 = 0.1214	1.6e-08	–	1252	1.658
x2 = 0.1805	2.3e-08	–	1257	1.677
x2 = 0.2144	2.7e-08	–	1259	1.688
x2 = 0.251	3.2e-08	–	1264	1.699
x2 = 0.3225	3.9e-08	–	1274	1.719
x2 = 0.4115	4.6e-08	–	1285	1.742
x2 = 0.467	4.8e-08	–	1296	1.755
x2 = 0.5001	5e-08	–	1302	1.763
x2 = 0.5524	4.8e-08	–	1316	1.773
x2 = 0.6207	4.7e-08	–	1339	1.786
x2 = 0.7005	4e-08	–	1379	1.796
x2 = 0.7829	3e-08	–	1415	1.801
x2 = 0.8014	2.8e-08	–	1423	1.802
x2 = 0.9228	1.2e-08	–	1459	1.803

C[S+](C)[O-] [dimethyl sulfoxide] + Cc1ccc(Cl)cc1
x1 = 1
Details	mass density [kg/m3]	speed of sound [m/s]	viscosity [mPa·s]
–	1091.35	1470	1.803

Cc1ccccc1Cl [2-chlorotoluene] + C[S+](C)[O-]
Details	excess molar volume [m3/mol]	mass density [kg/m3]	speed of sound [m/s]	viscosity [mPa·s]
x2 = 0	–	1072.81	1284	0.887
x2 = 0.104	1.1e-08	–	1303	1.013
x2 = 0.1845	2.1e-08	–	1324	1.123
x2 = 0.2141	2.5e-08	–	1330	1.16
x2 = 0.2552	2.9e-08	–	1343	1.209
x2 = 0.3075	3.3e-08	–	1352	1.266
x2 = 0.376	3.9e-08	–	1369	1.342
x2 = 0.4079	4.2e-08	–	1377	1.375
x2 = 0.5224	4.6e-08	–	1403	1.49
x2 = 0.551	4.5e-08	–	1410	1.518
x2 = 0.6005	4.2e-08	–	1422	1.564
x2 = 0.7241	3.1e-08	–	1446	1.667
x2 = 0.761	2.7e-08	–	1450	1.69
x2 = 0.8011	2.3e-08	–	1460	1.724
x2 = 0.8711	1.6e-08	–	1464	1.773

C[S+](C)[O-] [dimethyl sulfoxide] + Cc1ccccc1[N+](=O)[O-]
x1 = 1
Details	mass density [kg/m3]	speed of sound [m/s]	viscosity [mPa·s]
–	1091.35	1470	1.803

Clc1ccccc1Cl [1,2-dichlorobenzene] + C[S+](C)[O-]
Details	excess molar volume [m3/mol]	mass density [kg/m3]	speed of sound [m/s]	viscosity [mPa·s]
x2 = 0	–	1299.24	1261	1.302
x2 = 0.104	2.3e-08	–	1264	1.379
x2 = 0.1511	3.3e-08	–	1268	1.409
x2 = 0.2041	4e-08	–	1274	1.443
x2 = 0.2506	4.7e-08	–	1279	1.472
x2 = 0.301	5.3e-08	–	1284	1.502
x2 = 0.4025	6e-08	–	1303	1.56
x2 = 0.4511	6.3e-08	–	1312	1.587
x2 = 0.521	6.5e-08	–	1329	1.623
x2 = 0.6511	5.8e-08	–	1367	1.686
x2 = 0.7221	5.3e-08	–	1394	1.719
x2 = 0.7519	4.9e-08	–	1403	1.73
x2 = 0.8002	4e-08	–	1417	1.751
x2 = 0.8514	3.5e-08	–	1435	1.766
x2 = 0.9019	2.3e-08	–	1446	1.782
x2 = 0.9405	1.3e-08	–	1457	1.782

From the NIST ThermoML archive (doi:10.1016/j.jct.2006.04.005)
